Test results: patent publication US7547728B2, “Treating muscle wasting with selective androgen receptor modulators” (priority 2001, dated 2009)
“And” between values parts separate entries of the source, which are not always exact repeats. Identical values can stand only once. Like-named read-outs stand apart in the source and are kept apart here.

Columns and labels:
MHC II b mRNA = assay: MHC IIb mRNA expression by RT-PCR in masseter muscle of intact female rats; assay type: in vivo, rat
Experimental: Rat muscle tissue was harvested in 5 volumes of RNA later solution (Ambion, cat.# 7020) and stored at 4° C. until used for RNA isolation. Total RNA was isolated in the FastPrep FP120 instrument (Qbiogene) using RNAqueous-4PCR kit (Ambion, cat # 1914) in combination with FastRNA green tubes (Qbiogene, cat.# 6040-600) at settings for time at 45 sec and speed at 6.5.1 ug of total RNA was used for reverse transcription using Retroscript kit (Ambion, cat# 1710). The mixture was incubated at 42° C. for 60 min, followed by 10 min at 92° C., and then chilled on ice and used in PCR reaction.
Relatively quantitative RT-PCR was used to analyze expression of MHC mRNA in rat musculus masseter (MM) and levator ani (LA). As an internal standard 18S ribosomal RNA was used (QuantumRNA classic 18S Internal Standard, Ambion, cat.# 1716). Linear range of PCR reaction for all primers as well as optimal ratio of 18S primers to competitors to achieve the same level of amplification as the genes of interest was determined.
Primers were obtained from IDT based on the recently published design (Wright et al., J. Appl. Phys. 1997;83:1389), with the following sequence: 5′[…]3′. […]
5 units of Taq DNA polymerase (Roche, cat# 1146165), 200 μM of each dNTP (Invitrogen, cat.#R725-01), 0.2 μM each MHC primer (IDT), 1 μl of cDNA from reverse transcription reaction and 4 μl of 18S primers: competitors mixture were used in 50 μl PCR reaction. […] PCR products were analyzed by agarose gel electrophoresis [20-μl aliquots of a 50-μl PCR reaction loaded on a 1.5% agarose gel (in 1× Tris-Acetate-EDTA buffer) containing 0.2 μg/ml ethidium bromide] to visualize the PCR products. […] Pictures were scanned and the volume of the optical density (OD) of a DNA band was determined by the Image Quant software (Molecular Dynamics), and the background was subtracted (so local background was directly proportional to the amount of DNA over a wide range). […] The content of each experimental group MHC gene was calculated as a percentage of the MHC value in the control group (Table 2).

levator ani = assay: Levator ani evaluation in androgen-treated intact female rats; assay type: in vivo, rat; conditions: 14 and 28 days treatment
Text: In these same rats, the levator ani was dissected and evaluated for the expression pattern of MHC family members. […] Physiol. 75(5): 2337-2340, 1993].

prostate = assay: Androgenic activity: prostate weight in male rats; assay type: in vivo, rat; conditions: for Agonist character in prostate: male rats, from organ weights
Text: (§1) Male Sprague-Dawley rats were purchased from Harlan Biosciences (Indianapolis, Ind.). […] One day before the initiation of drug treatment, groups 4 through 6 and groups 7 through 9 received unilateral or bilateral orchidectomy, respectively, via a midline scrotal incision. […] All drugs given to animals were freshly prepared as solutions in polyethylene glycol 300 (PEG 300). Groups 4 and 7 received treatment with vehicle alone (i.e., PEG 300). […] The ventral prostates, seminal vesicles, and levator ani muscle were removed and weighed. Osmotic pumps were also removed from animals to check for correct pump operation. […] Statistical analyses of parameters from complete blood count or serum chemical profiling, wherever applicable, were performed by single-factor ANOVA with the alpha value set a priori at p<0.05.

seminal vesicles = assay: Androgenic activity: seminal vesicle weight in male rats; assay type: in vivo, rat; conditions: for ED50 / Emax (% of Intact Control) / Relative Afficacy / Relative Potency: seminal vesicle; for ED50 / Emax (% of Intact Control) / Seminal Vesicles weight: castrated rats; for ED50 / Emax (% of Intact Control): dose response 0.1-1.0 mg/day; for Relative Afficacy / Relative Potency: relative to TP; for Agonist character in seminal vesicles: male rats, from organ weights
Text: as §1

levator ani muscle = assay: Anabolic activity: levator ani muscle weight in male rats; assay type: in vivo, rat; conditions: for ED50 / Emax (% of Intact Control) / Relative Afficacy / Relative Potency: levator ani muscle; for ED50 / Emax (% of Intact Control): dose response 0.1-1.0 mg/day; for Relative Afficacy / Relative Potency: relative to TP; for Levator ani muscle weight compared with intact controls: castrated male rats, 0.1-1 mg/day (FIG. 7)
Text: as §1

MHC IIb mRNA = MHC IIb mRNA expression in masseter and gastrocnemius muscle of intact male rats; conditions: TP 5 mg/kg/day, Compound V 1 mg/kg/day
androgen receptor = target: T1, androgen receptor (Rattus norvegicus, UniProt P15207); assay: biochemical; assay type: binding; conditions: for RBA (%): relative binding affinity
T1 construct: from tissue
T1 sequence (P15207 1-902): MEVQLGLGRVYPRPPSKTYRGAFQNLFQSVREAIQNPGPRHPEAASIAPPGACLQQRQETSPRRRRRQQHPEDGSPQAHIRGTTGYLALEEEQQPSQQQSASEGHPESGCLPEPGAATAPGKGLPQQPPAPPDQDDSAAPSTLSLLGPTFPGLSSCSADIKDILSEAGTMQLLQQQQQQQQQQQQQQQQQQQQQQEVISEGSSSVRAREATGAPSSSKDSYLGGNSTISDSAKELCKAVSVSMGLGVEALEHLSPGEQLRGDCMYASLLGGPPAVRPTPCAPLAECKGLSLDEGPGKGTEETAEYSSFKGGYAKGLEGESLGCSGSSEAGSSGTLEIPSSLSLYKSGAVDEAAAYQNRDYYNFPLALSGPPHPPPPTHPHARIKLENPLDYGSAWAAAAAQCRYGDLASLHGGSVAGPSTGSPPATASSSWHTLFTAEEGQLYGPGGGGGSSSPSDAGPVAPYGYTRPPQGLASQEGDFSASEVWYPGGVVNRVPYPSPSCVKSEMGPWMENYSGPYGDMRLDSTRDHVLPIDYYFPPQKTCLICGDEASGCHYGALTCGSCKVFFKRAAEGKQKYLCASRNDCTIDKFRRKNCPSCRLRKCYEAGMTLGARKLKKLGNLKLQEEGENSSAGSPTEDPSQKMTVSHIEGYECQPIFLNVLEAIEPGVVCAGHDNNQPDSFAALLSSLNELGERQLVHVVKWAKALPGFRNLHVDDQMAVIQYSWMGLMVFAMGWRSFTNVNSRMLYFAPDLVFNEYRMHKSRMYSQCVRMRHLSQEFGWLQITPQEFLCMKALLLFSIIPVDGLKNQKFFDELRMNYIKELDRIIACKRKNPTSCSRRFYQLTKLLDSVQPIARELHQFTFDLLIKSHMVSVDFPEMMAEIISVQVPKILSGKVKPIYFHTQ

[1] = Adverse pharmacologic effects in rats of varying hormonal status; assay type: in vivo, rat; conditions: male rats, 0.5 mg/day, 14 days
FSH, LH and testosterone = assay: Plasma concentrations of FSH, LH and testosterone in treated male rats; assay type: in vivo, rat; conditions: data not shown
[2] = prostate, castrated rats, dose response 0.1-1.0 mg/day
[3] = castrated rats, 1 mg/day, daily injection

## CCC(=O)O[C@H]1CC[C@H]2[C@@H]3CCC4=CC(=O)CC[C@]4(C)[C@H]3CC[C@]12C [TP, testosterone propionate, reference compound]
MHC II b mRNA
  MHC IIb expression, % of untreated control: 141.5%
MHC II b mRNA; listed as testosterone propionate
  MHC IIb expression, % of untreated control: 142%
Levator ani
  Presence of levator ani muscle after treatment: had a muscle present in the location expected for the levator ani
prostate; [2]
  ED50: 0.13 ± 0.03 mg/day
  Emax (% of Intact Control): 120.6 ± 13.4 % of Intact Control
prostate; prostate, relative to TP
  Relative Afficacy: 1.00
  Relative Potency: 1.00
Seminal vesicles
  ED50: 0.12 ± 0.02 mg/day
  Emax (% of Intact Control): 70.0 ± 18.8 % of Intact Control
  Relative Afficacy: 1.00
  Relative Potency: 1.00
Levator ani muscle; castrated rats
  ED50: 0.15 ± 0.03 mg/day
  Emax (% of Intact Control): 104.2 ± 10.1 % of Intact Control
Levator ani muscle
  Relative Afficacy: 1.00
  Relative Potency: 1.00
MHC IIb mRNA; gastrocnemius muscle
  MHC type IIb transcription, % of untreated control: 139(±47) %
MHC IIb mRNA; masseter muscle
  MHC type IIb transcription, % of untreated control: 120(±14) %

## C[C@](O)(COc1ccc(F)c(F)c1)C(=O)Nc1ccc([N+](=O)[O-])c(C(F)(F)F)c1 [Compound XI]
prostate; [3]
  Prostate weight: 33.1 ± 8.5 % of intact
prostate
  Agonist character in prostate: weak partial agonist
Seminal vesicles; 1 mg/day, daily injection
  Seminal Vesicles weight: 23.6 ± 8.8 % of intact
Seminal vesicles
  Agonist character in seminal vesicles: weak partial agonist
Androgen receptor
  Ki: 3.4 ± 0.56 nM

## C[C@](O)(COc1ccc(Cl)cc1)C(=O)Nc1ccc([N+](=O)[O-])c(C(F)(F)F)c1 [Compound VII]
Levator ani muscle
  Levator ani muscle weight compared with intact controls: exceeding those of intact controls

## C[C@](O)(COc1ccc(F)cc1)C(=O)Nc1ccc(C#N)c(C(F)(F)F)c1 [Compound X]
prostate; castrated rats, 0.10 mg/day
  Prostate weight: 6.4 ± 0.82 % of intact
prostate; castrated rats, 0.50 mg/day
  Prostate weight: 6.2 ± 0.56 % of intact
prostate; castrated rats, 0.75 mg/day
  Prostate weight: 7.6 ± 0.74 % of intact
prostate; castrated rats, 1.00 mg/day
  Prostate weight: 8.7±1.39 % of intact
prostate
  Agonist character in prostate: weak partial agonist
Seminal vesicles; 0.10 mg/day
  Seminal Vesicles weight: 8.8 ± 1.18 % of intact
Seminal vesicles; 0.50 mg/day
  Seminal Vesicles weight: 9.3 ± 1.57 % of intact
Seminal vesicles; 0.75 mg/day
  Seminal Vesicles weight: 9.8 ± 3.65 % of intact
Seminal vesicles; 1.00 mg/day
  Seminal Vesicles weight: 10.7±0.91 % of intact
Seminal vesicles
  Agonist character in seminal vesicles: weak partial agonist
Levator ani muscle; castrated rats, 0.10 mg/day
  Levator Ani weight: 54.9 ± 5.77 % of intact
Levator ani muscle; castrated rats, 0.50 mg/day
  Levator Ani weight: 55.0 ± 9.23 % of intact
Levator ani muscle; castrated rats, 0.75 mg/day
  Levator Ani weight: 68.9 ± 8.46 % of intact
Levator ani muscle; castrated rats, 1.00 mg/day
  Levator Ani weight: 75.2±9.51 % of intact

## CC(=O)Nc1ccc(OC[C@](C)(O)C(=O)Nc2ccc([N+](=O)[O-])c(C(F)(F)F)c2)cc1 [Compound V]
MHC II b mRNA
  MHC IIb expression, % of untreated control: 124% and 124.5%
Levator ani
  Presence of levator ani muscle after treatment: had a muscle present in the location expected for the levator ani
prostate
  Agonist character in prostate: partial agonist
Seminal vesicles
  Agonist character in seminal vesicles: partial agonist
  ED50: 0.55 ± 0.02 mg/day
  Emax (% of Intact Control): 28.5 ± 0.8 % of Intact Control
Levator ani muscle; male rats, from organ weights
  Agonist character in levator ani muscle: full agonist
[1]
  Adverse pharmacologic effects: No adverse pharmacologic effects were observed
FSH, LH and testosterone
  Changes in plasma concentrations of FSH, LH and testosterone: absence of any significant changes
MHC IIb mRNA; gastrocnemius muscle
  MHC type IIb transcription, % of untreated control: 162(±54) %
MHC IIb mRNA; masseter muscle
  MHC type IIb transcription, % of untreated control: 117(±13) %

## C[C@](O)(COc1ccc(Br)cc1)C(=O)Nc1ccc([N+](=O)[O-])c(C(F)(F)F)c1 [Compound VIII]
Levator ani muscle
  Levator ani muscle weight compared with intact controls: close to those of the intact controls
Androgen receptor
  RBA (%): 5.3%

## C[C@](O)(COc1ccc(I)cc1)C(=O)Nc1ccc([N+](=O)[O-])c(C(F)(F)F)c1 [Compound IX]
Levator ani muscle
  Levator ani muscle weight compared with intact controls: close to those of the intact controls
Androgen receptor
  RBA (%): 2.7%

## C[C@](O)(COc1ccc(F)cc1)C(=O)Nc1ccc([N+](=O)[O-])c(C(F)(F)F)c1 [Compound VI]
Seminal vesicles
  ED50: 0.38 ± 0.26 mg/day
  Emax (% of Intact Control): 12.7 ± 3.1 % of Intact Control
  Relative Afficacy: 0.18
  Relative Potency: 0.32
Levator ani muscle
  Levator ani muscle weight compared with intact controls: close to those of the intact controls
  Relative Afficacy: 0.72
  Relative Potency: 0.34
Levator ani muscle; castrated rats
  ED50: 0.44 ± 0.01 mg/day
  Emax (% of Intact Control): 74.9 ± 0.4 % of Intact Control

## C[C@](O)(COc1c(F)c(F)c(F)c(F)c1F)C(=O)Nc1ccc([N+](=O)[O-])c(C(F)(F)F)c1 [Compound XII]
prostate; [3]
  Prostate weight: 7.2 ± 1.4 % of intact
prostate
  Agonist character in prostate: weak partial agonist
Seminal vesicles; 1 mg/day, daily injection
  Seminal Vesicles weight: 7.2 ± 0.9 % of intact
Seminal vesicles
  Agonist character in seminal vesicles: weak partial agonist
Levator ani muscle; castrated rats, 1 mg/day via osmotic pump
  Levator Ani Muscle weight: 122.5±10.4 % of intact
Androgen receptor
  RBA (%): 13.3%
